Laboratory results published in ChEMBL document CHEMBL1135199, “Structure-activity relationships of non-imidazole H(3) receptor ligands. Part 2: binding preference for D-amino acids motifs” (Bioorg Med Chem Lett, 2002).

How the values were obtained:
Histamine H1 receptor = Histamine H1 receptor (Homo sapiens, UniProt P35367); experiment: Binding affinity towards Histamine H1 receptor of human membranes.
Histamine H3 receptor [1] = target: Histamine H3 receptor (Rattus norvegicus, UniProt Q9QYN8); experiment: Binding affinity towards Histamine H3 receptor of rat cortical membranes.
Histamine H3 receptor (Rattus norvegicus, UniProt Q9QYN8), sequence (Q9QYN8 whole entry): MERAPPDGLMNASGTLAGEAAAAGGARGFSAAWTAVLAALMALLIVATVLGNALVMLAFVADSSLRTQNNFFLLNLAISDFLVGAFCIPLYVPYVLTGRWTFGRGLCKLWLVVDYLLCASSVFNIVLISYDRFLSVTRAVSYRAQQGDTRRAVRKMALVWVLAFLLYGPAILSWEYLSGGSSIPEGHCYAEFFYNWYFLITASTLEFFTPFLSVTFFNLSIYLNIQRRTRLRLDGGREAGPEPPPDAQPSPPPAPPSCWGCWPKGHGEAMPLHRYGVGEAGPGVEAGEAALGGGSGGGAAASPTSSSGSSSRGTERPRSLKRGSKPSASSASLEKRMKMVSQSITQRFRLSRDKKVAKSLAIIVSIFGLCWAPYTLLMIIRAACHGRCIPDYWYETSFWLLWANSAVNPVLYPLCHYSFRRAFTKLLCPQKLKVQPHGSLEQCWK

Histamine H2 receptor = Histamine H2 receptor (Homo sapiens, UniProt P25021); experiment: Binding affinity towards Histamine H2 receptor from human membranes
Histamine H2 receptor, sequence (P25021 whole entry): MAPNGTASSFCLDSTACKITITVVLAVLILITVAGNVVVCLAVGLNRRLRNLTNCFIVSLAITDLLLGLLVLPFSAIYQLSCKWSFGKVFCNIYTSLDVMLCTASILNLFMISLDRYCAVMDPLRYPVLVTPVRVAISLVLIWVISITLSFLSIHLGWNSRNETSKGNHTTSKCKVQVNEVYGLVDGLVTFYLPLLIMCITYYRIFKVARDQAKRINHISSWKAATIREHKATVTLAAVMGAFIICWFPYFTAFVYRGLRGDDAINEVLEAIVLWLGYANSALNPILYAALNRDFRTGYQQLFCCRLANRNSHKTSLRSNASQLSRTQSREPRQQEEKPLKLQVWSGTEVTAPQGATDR

[2] = Oral bioavailability in rat (dose 5 mg/kg p.o.); type: ADME, organism-based; conditions: in vivo
[3] = target: Histamine H3 receptor (Rattus norvegicus) (UniProt Q9QYN8); experiment: In vitro histamine H3 receptor antagonist activity was determined by K+-evoked depolarization- induced release of [3H]histamine from rat synaptosomes; type: functional, subcellular; conditions: Brain
Histamine H3 receptor (Rattus norvegicus), sequence (Q9QYN8 whole entry): as the sequence (Q9QYN8 whole entry) above

Histamine H3 receptor [4] = target: Histamine H3 receptor (Cavia porcellus, UniProt Q9JI35); experiment: Tested in vitro for histamine H3 receptor mediate inhibition of neurogenic contractions in guinea pig isolated ileum assay; type: functional, tissue-based; conditions: read-out: pA2 (converted)
Histamine H3 receptor (Cavia porcellus, UniProt Q9JI35), sequence (Q9JI35 whole entry): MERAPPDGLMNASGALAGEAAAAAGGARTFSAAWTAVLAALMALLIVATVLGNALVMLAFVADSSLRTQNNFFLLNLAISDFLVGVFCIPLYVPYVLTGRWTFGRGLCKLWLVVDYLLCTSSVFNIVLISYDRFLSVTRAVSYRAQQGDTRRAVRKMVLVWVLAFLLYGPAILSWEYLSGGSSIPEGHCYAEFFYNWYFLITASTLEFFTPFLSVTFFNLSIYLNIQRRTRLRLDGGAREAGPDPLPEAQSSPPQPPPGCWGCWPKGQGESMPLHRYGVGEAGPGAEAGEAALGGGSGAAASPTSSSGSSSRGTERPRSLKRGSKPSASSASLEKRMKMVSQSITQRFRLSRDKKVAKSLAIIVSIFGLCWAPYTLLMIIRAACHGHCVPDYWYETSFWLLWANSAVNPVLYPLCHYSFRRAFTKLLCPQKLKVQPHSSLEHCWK

Histamine H1 receptor, sequence (P35367 whole entry): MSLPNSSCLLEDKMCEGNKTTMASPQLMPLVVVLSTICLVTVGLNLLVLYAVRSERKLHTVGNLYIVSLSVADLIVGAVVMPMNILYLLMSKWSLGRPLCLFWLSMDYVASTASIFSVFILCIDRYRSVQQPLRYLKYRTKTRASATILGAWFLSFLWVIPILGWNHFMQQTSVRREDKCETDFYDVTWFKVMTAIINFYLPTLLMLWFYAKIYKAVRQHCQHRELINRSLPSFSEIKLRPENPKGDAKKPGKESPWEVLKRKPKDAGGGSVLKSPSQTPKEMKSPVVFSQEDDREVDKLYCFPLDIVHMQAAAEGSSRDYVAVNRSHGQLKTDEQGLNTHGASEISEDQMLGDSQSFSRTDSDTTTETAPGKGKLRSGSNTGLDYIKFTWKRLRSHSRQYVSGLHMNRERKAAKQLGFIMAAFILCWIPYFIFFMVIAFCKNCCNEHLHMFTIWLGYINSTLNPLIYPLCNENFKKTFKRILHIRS

Row | SMILES | Ki (Histamine H1 receptor) [µM] | Ki (Histamine H3 receptor [1]) [µM] | Ki (Histamine H2 receptor) [µM] | bioavailability [2] [%] | pKb [3] | Kb (Histamine H3 receptor [4]) [µM]
1 | CN[C@H](Cc1ccccc1)C(=O)N1CCN(CCCOc2ccc(C(=O)C3CC3)cc2)CC1 | 13.5 | 0.0437 | 17.8 | – | – | –
2 | CCCCCC(=O)c1ccc(OCCCN2CCN(C(=O)[C@@H](Cc3ccncc3)NC(=O)OC(C)(C)C)CC2)cc1 | 17 | 0.0234 | 12 | – | – | –
3 | CC(C)(C)[C@@H](N)C(=O)N1CCN(CCCOc2ccc(C(=O)C3CC3)cc2)CC1 | 21.9 | 0.0525 | 19.1 | – | – | –
4 | O=C1C[C@@H](N2CCN(CCCOc3ccc(C(=O)C4CC4)cc3)CC2)N1 | 10 | 0.00437 | 10 | – | – | –
5 | C[C@@H](NC(=O)OC(C)(C)C)C(=O)N1CCN(CCCOc2ccc(C(=O)C3CC3)cc2)CC1 | 8.13 | – | 83.2 | – | – | –
6 | N[C@H](Cc1c[nH]cn1)C(=O)N1CCN(CCCOc2ccc(C(=O)C3CC3)cc2)CC1 | 95.5 | 0.00457 | 89.1 | – | – | –
7 | N[C@H](CC1CCCCC1)C(=O)N1CCN(CCCOc2ccc(C(=O)C3CC3)cc2)CC1 | 14.5 | 0.162 | 20.4 | – | – | –
8 | N#CC[C@@H](N)C(=O)N1CCN(CCCOc2ccc(C(=O)C3CC3)cc2)CC1 | 45.7 | 0.0288 | 72.4 | – | – | –
9 | CCCCCC(=O)c1ccc(OCCCN2CCN(C(=O)[C@H](N)Cc3ccncc3)CC2)cc1 | 3.31 | 0.00912 | 37.2 | – | – | –
10 | O=C1C[C@H](N2CCN(CCCOc3ccc(C(=O)C4CC4)cc3)CC2)N1 | 21.9 | 0.0427 | 26.9 | – | – | –
11 | NCCC(=O)N1CCN(CCCOc2ccc(C(=O)C3CC3)cc2)CC1 | 28.2 | 0.000501 | 100 | 46 | – | –
12 | CCC[C@@H](N)C(=O)N1CCN(CCCOc2ccc(C(=O)C3CC3)cc2)CC1 | 46.8 | 0.00398 | 60.3 | – | – | –
13 | N[C@@H](C(=O)N1CCN(CCCOc2ccc(C(=O)C3CC3)cc2)CC1)c1ccccc1 | 4.57 | 0.0275 | 24.5 | – | – | –
14 | CCCCCC(=O)c1ccc(OCCCN2CCN(C(=O)[C@H](NC(=O)OC(C)(C)C)C(C)C)CC2)cc1 | 3.31 | 0.0148 | 13.5 | – | – | –
15 | CCCCCC(=O)c1ccc(OCCCN2CCN(C(=O)[C@@H](C)N)CC2)cc1 | 35.5 | 0.00191 | 40.7 | – | – | –
16 | CCCCCC(=O)c1ccc(OCCCN2CCN(C(=O)[C@H](N)CO)CC2)cc1 | 46.8 | 0.00708 | 34.7 | – | – | –
17 | C[C@@H](N)C(=O)N1CCN(CCCOc2ccc(C(=O)C3CC3)cc2)CC1 | 69.2 | 0.00126 | 70.8 | 83 | 8.75 | 0.105
18 | CC(C)(C)OC[C@@H](N)C(=O)N1CCN(CCCOc2ccc(C(=O)C3CC3)cc2)CC1 | 16.2 | 0.00851 | 45.7 | – | – | –
19 | C[C@@H](CN)C(=O)N1CCN(CCCOc2ccc(C(=O)C3CC3)cc2)CC1 | 1.51 | 0.00646 | 10.2 | – | – | –
20 | O=C(c1ccc(OCCCN2CCN(C(=O)C[C@H]3CCCN3)CC2)cc1)C1CC1 | 95.5 | – | 89.1 | – | – | –
21 | N[C@H](Cc1ccc(F)cc1)C(=O)N1CCN(CCCOc2ccc(C(=O)C3CC3)cc2)CC1 | 9.33 | 0.0295 | 39.8 | – | – | –
22 | CC(C)(C)OC(=O)N1CCC[C@@H]1C(=O)N1CCN(CCCOc2ccc(C(=O)C3CC3)cc2)CC1 | 46.8 | 0.12 | 50.1 | – | – | –
23 | CCCCCC(=O)c1ccc(OCCCN2CCN(C(=O)[C@H](N)C(C)C)CC2)cc1 | 16.6 | 0.017 | 31.6 | – | – | –
24 | N[C@H](Cc1ccc(O)cc1)C(=O)N1CCN(CCCOc2ccc(C(=O)C3CC3)cc2)CC1 | 9.77 | 0.0302 | 33.1 | – | – | –
25 | C[C@H](N)C(=O)N1CCN(CCCOc2ccc(C(=O)C3CC3)cc2)CC1 | 53.7 | 0.0204 | 41.7 | – | – | –
26 | N[C@H](Cc1ccsc1)C(=O)N1CCN(CCCOc2ccc(C(=O)C3CC3)cc2)CC1 | 9.77 | 0.0229 | 46.8 | – | – | –
27 | CC[C@@H](N)C(=O)N1CCN(CCCOc2ccc(C(=O)C3CC3)cc2)CC1 (stereo in doubt; 43) | 70.8 | 0.00158 | 100 | – | – | –
